Measured values published in patent EP0509845A1, “(+) and (-) enantiomers of 5-aliphatic-6-(benzoxazinyl- or benzothiazinyl)-2,3,4,5-tetrahydropyridazin-3-ones” (ORTHO PHARMACEUTICAL CORPORATION, priority 1991, dated 1992).
Like-named read-outs stand apart in the source and are kept apart here.

Legend:
[1] = tested on: adult mongrel dogs; experiment: Cardiotonic activity, racemate testing in anesthetized dogs; format: in vivo
Description: The cardiotonic activity of the compounds was determined in accordance with the method of Alousi, A. A., et al., J. Cir. Res., 45, 666 (l979). Basically, adult mongrel dogs were anesthetized with sodium pentobarbital and artifically respired. Arterial pressure was recorded via a femoral artery and the pressure pulse used to trigger a cardiotachometer for heart rate. Left ventricular pressure was measured with a Millar catheter and dP/dt was derived. Cardiac output was determined by measuring ascending aortic blood flow with an electromagnetic flow probe and myocardial contractile force was measured with a Walton Brodie strain gauge sutured to the right ventricle. Lead II EKG was also recorded. A standard dose of dopamine was administered to assess myocardial responsiveness. Test compounds were administered by i.v. infusion or bolus administration and the effects on cardiovascular parameters were determined. Dose-related effects of the test compound on BP, HR, dP/dt max., C.F. and C.O. were compared to pretreatment control values and expressed as a percentage change.

[2] = tested on: adult mongrel dogs; experiment: Comparative racemate and enantiomer hemodynamic testing in pentobarbital anesthetized open-chest dogs; format: in vivo; conditions: dogs
Description: Adult mongrel dogs weighing approximately l0-l4 kg were anesthetized with sodium pentobarbital (35 mg/kg, i.p.) and artificially respired. A femoral artery was cannulated to measure mean arterial pressure (MAP) and a femoral vein was cannulated for administering compounds. A Millar microtip pressure transducer was placed in the left ventricle via the left carotid artery to measure left ventricular end diastolic pressure (EDP). pressure pulses triggered a cardiotachometer for determination of heart rate (HR) while the left ventricular pressure waveform was differentiated using a Gould differentiating amplifier to yield dP/dtmax, an index of contractility. A right thoractomy was performed at the fourth intercostal space and the pericardial sac was opened. An externally calibrated Walton-Brodie strain gauge arch was sutured to the right ventricular free wall and stretched to produce a baseline force of approximately l00g. Subsequent changes in right ventricular contractile force (CF) were measured from this baseline. A Carolina electromagnetic flow probe was placed on the ascending aorta to estimate cardiac output (CO). A flexible fluid-filled catheter was inserted into the tip of the right atrium to measure right atrial pressure (RAP). Needle electrodes were placed in the appropriate limbs to record a lead II electrocardiogram (ECG). The following formulas were used to calculate derived parameters: Stroke volume (SV) = CO/HR x l000 Stroke work (SW) = ([…]) x SV Total peripheral resistance (TPR) = (MAP-EDP)/CO
Following surgery and stabilization of hemodynamic parameters, an i.v. infusion of dopamine (l0-l5 µg/kg/min for 3 min) was administered with a Harvard infusion pump to assess responsiveness to positive inotropic stimulation. Baseline hemodynamic values were obtained immediately prior to drug infusion. Responses were continuously monitored on a recorder (Gould 2800) and data collection was facilitated by the use of a Buxco cardiovascular analyzer and data logger.
In the comparative testing a stock solution of each enantiomer (l mg/ml) was prepared fresh daily and diluted before use. Compounds were dissolved in a small volume of dimethylformamide (DMF) and diluted with saline for a final concentration of l5% DMF. Further dilutions were made with a l5% DMF solution.
In the comparative testing each compound was administered in cumulative doses to separate dogs. Data were obtained at the end of each dose. (±) Bemoradan and (+) Bemordan were infused at cumulative doses of 5, l5, 35 and 75 µg/kg, administered with a Harvard infusion pump for 5 minutes each at rates of 0.56, l.l, 2.2, and […], respectively. (-) Bemoradan was given at doses of 5, l5 and 35 µg/kg following the same protocol. The high dose of the (-) isomer was not administered as a means of conserving compound.
Hemodynamic results were expressed as the percent change from pre-drug baseline values and compared using a Dunnett's test with a criterion for significance of p < 0.05. Contractile force ED₄₀ values (i.e., the dose which increased contractile force by 40%) were calculated from dose-response regression lines.

[3] = tested on: human platelet aggregation; experiment: Platelet aggregation in vitro in platelet rich plasma; format: cell-based; conditions: Homo sapiens, Platelet, human PRP
Description: The racemate and enantiomeric Bemoradan were tested for their effects in vitro on human platelet aggregation. Platelet rich plasma (PRP) was prepared from human donors who were free of aspirin for the preceding week. Venous blood was collected in sodium citrate vacutainer tubes and PRP was obtained by centrifuging the blood at l000 rpm for 5 min. Compounds were dissolved in methanol and added to 480 µl of PRP in a Chrono-log dual channel aggregometer l min prior to aggregant. Serotonin at 5 µM or ADP at 2 µM were the aggregating agents.

[4] = biological target: T1, canine cardiac cyclic nucleotide phosphodiesterase (PDE) fraction III (Canis lupus familiaris, UniProt A0A8I3NYE0); experiment: Cyclic AMP phosphodiesterase assay with fraction III isoenzyme, comparative testing; format: biochemical
T1 construct: The fraction III isoenzyme was pooled and dialyzed; from tissue; host or cells: canine heart, soluble supernatant, DEAE cellulose fraction III (800 mM sodium acetate eluate)
T1 sequence (A0A8I3NYE0 1-1135): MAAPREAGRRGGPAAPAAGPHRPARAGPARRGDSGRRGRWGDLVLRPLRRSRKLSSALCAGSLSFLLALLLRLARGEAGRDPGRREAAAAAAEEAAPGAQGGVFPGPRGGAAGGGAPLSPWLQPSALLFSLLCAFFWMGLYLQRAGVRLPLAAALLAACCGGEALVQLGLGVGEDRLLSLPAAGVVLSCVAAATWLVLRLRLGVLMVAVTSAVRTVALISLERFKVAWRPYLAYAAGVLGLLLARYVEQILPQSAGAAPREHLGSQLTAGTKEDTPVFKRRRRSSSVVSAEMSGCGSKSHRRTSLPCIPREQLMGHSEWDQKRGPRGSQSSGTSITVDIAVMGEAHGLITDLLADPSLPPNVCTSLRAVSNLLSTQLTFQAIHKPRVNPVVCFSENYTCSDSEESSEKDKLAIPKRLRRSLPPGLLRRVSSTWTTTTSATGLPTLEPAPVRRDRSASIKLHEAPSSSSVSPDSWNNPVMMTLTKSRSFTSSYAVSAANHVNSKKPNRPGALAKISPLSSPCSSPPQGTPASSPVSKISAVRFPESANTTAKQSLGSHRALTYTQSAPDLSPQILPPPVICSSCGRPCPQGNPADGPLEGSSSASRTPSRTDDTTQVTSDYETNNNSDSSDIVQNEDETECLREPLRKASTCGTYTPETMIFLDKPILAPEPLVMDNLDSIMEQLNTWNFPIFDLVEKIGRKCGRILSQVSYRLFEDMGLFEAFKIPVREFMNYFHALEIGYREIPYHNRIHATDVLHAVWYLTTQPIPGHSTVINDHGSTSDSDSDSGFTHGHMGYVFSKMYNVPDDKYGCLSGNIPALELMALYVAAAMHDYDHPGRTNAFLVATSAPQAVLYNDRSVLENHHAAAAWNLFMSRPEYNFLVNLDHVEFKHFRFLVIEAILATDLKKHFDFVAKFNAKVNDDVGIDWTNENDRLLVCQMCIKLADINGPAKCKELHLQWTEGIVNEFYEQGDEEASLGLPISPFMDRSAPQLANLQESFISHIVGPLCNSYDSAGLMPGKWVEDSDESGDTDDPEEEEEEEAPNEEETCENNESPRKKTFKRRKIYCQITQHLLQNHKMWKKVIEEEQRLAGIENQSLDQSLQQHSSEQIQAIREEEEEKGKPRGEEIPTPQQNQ

[5] = biological target: T2, cyclic nucleotide phosphodiesterase (Canis lupus familiaris, UniProt A0A8I3NYE0); experiment: Phosphodiesterase inhibitory activity, racemate testing; format: biochemical; conditions: read-out: IC50 (Micromolar concentration for 50% inhibition of cyclic nucleotide activity); cyclic AMP as substrate, Tris-Cl buffer pH 7.4
T2 sequence (A0A8I3NYE0 1-1135): T1 sequence (A0A8I3NYE0 1-1135)

Compound: 6-(3,4-Dihydro-3-oxo-l,4[2H]-benzothiazin-7-yl)-2,3,4,5-tetrahydro-5-methylpyridazin-3-one [Example 56]
- CF (Percent increase in cardiac force) ([1]; I.V. dose 0.027 mpk): 32%

Compound: CC1CC(=O)NN=C1c1ccc2c(c1)OCC(=O)N2 (racemic) [Example 46, 6-(3,4-Dihydro-3-oxo-l,4(2H)-benzoxazin-7-yl)-2,3,4,5-tetrahydro-5-methylpyridazin-3-one]
- ED40 ([2]; Canis lupus familiaris, iv, Table I summary, dose increasing contractile force by 40%, i.v., read-out: In vivo inotropic ED40, i.v.): 4.4 µg/kg
- CF ED40 (µg/kg) with 95% F.L. ([2]; dose causing a 40% increase in contractility above baseline, from dose-response regression lines, i.v. infusion): 4.4 (3.9 - 4.9) µg/kg
- IC50 ([3]; ADP at 2 µM, read-out: Antiaggregatory IC50 (µM) vs. ADP): 0.65 µM
- IC50 ([3]; Serotonin at 5 µM, read-out: Antiaggregatory IC50 (µM) vs. 5-HT): 0.4 µM
- IC50 ([3]; Table I summary, ADP at 2 µM as aggregant, read-out: Platelet aggregation (IC50) vs. ADP): 0.65 µM
- IC50 ([3]; Table I summary, serotonin at 5 µM as aggregant, read-out: Platelet aggregation (IC50) vs. 5-HT (serotonin)): 0.4 µM
- IC50 ([4]; Table I summary, canine cardiac PDE fraction III, read-out: PDE III inhibition (IC50)): 710 nM
- IC50 ([4]; canine heart fraction III, 0.1 µM cyclic AMP, read-out: PDE III IC50): 710 nM

Compound: COC(=O)CC(C)C(=O)c1ccc2c(c1)SCC(=O)N2C (stereo not drawn) [Example 53, Methyl 4-(3,4-dihydro-4-methyl-3-oxo-l,4[2H]-benzothiazin-7-yl)-3-methyl-4-oxobutyrate]
- CF (Percent increase in cardiac force) ([1]; I.V. dose 0.075 mpk): 21%
- IC50 [5]: 25000 nM

Compound: O=C1CCC(c2ccc3c(c2)NC(=O)CS3)=NN1 [Example 54, 6-(3,4-Dihydro-3-oxo-l,4[2H]-benzothiazin-6-yl)-2,3,4,5-tetrahydropyridazin-3-one]
- CF (Percent increase in cardiac force) ([1]; I.V. dose 0.075 mpk): 11%
- IC50 [5]: 22000 nM

Compound: CN1C(=O)CSc2ccc(C3=NNC(=O)CC3)cc21 [Example 55, 6-(3,4-Dihydro-4-methyl-3-oxo-l,4[2H]-benzothiazin-6-yl)-2,3,4,5-tetrahydropyridazin-3-one]
- CF (Percent increase in cardiac force) ([1]; I.V. dose 0.035 mpk): 160%
- IC50 [5]: < 100 nM
